The text below walks through data of patent US11976083B2, “Inhibitors of peptidylarginine deiminases” (Gilead Sciences, Inc., priority 2020, dated 2024).

The target of the experiment is T1, human PAD4 (Homo sapiens, UniProt Q9UM07).
T1 construct: human PAD4 (NM_012387), A2-P663, was PCR amplified; His-SUMO (N, cleaved yes); made in house; host or cells: E. coli BL21(DE3)
The experiment is described as follows: In vitro PAD4 BAEE biochemical assay. The settings on record: BAEE substrate 3 mM, 5 nM PAD4, 2 mM calcium chloride; geometric mean of multiple experiments. An outline of the steps:
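Fluorescence read-out (ex 405/em 535 nm) of isoindole formed from ammonia, o-phthalaldehyde and DTT after EDTA stop. Reaction: 5 nM PAD4, 2 mM CaCl2, 3 mM BAEE, 2 h, 25 °C, after 30 min enzyme–compound preincubation. Normalised to BB-Cl-Amidine (50 µM) and DMSO controls.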

T1 sequence (Q9UM07 2-663): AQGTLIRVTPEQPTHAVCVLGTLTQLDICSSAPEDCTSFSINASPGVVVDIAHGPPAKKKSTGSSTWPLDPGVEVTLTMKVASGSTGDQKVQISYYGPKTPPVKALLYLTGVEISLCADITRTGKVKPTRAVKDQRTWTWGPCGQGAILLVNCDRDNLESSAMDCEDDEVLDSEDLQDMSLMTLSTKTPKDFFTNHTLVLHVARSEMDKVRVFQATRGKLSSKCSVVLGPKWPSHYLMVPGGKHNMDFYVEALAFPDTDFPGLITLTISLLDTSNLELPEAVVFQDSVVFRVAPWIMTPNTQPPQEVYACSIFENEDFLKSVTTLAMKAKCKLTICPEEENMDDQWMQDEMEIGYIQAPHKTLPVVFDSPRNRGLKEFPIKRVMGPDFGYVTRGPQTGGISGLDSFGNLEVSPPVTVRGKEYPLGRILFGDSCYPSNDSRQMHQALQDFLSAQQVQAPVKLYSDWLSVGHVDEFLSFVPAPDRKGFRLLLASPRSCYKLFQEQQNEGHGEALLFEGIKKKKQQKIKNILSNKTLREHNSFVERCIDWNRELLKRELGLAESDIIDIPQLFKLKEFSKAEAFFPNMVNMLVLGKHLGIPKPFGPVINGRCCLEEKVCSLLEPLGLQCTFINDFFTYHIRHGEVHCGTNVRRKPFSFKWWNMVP

With `COc1cc(C(=O)N2CC[C@@H](C)[C@@H](N)C2)cc2nc(-c3cc4ccc5nc4n3CCCCCCC(C)(C)C(=O)N[C@@H]5C)n(C)c12` [Example 196, (11~{R})-17-[5-[(3~{R},4~{R})-3-amino-4-methyl-piperidine-1-carbonyl]-7-methoxy-1-methyl-benzimidazol-2-yl]-8,8,11-trimethyl-1,10,19-triazatricyclo[10.5.2.0^{15,18}]nonadeca-12(19),13,15(18),16-tetraen-9-one], the IC50 is 116 nM.
Take `C[C@H]1NC(=O)[C@@H]2C[C@@H]2C/C=C\CCn2c(-c3nc4cc(C(=O)N[C@H]5CNCC[C@@H]5F)c(F)cc4n3C)cc3ccc1nc32` [Example 521, 6-fluoro-~{N}-[(3~ {S},4~{S})-4-fluoro-3-piperidyl]-1-methyl-2-[(2~{R},5~{R},7~ {S},9~{Z})-2-methyl-4-oxo-3,13,19-triazatetracyclo[11.5.2.0^ {5,7}.0^{16,20}]icosa-1(19),9,14,16(20), 17-pentaen-14-yl] benzimidazole-5-carboxamide]: the IC50 is 76 nM.
The value for `COc1cc(C(=O)N2CC[C@@H](CO)[C@H](N)C2)cc2nc(-c3cc4ccc5nc4n3CCCCCCC(C)(C)C(=O)N[C@@H]5C)n(C)c12` [Example 66, (11˜{R})-17-[5-[(3˜{S},4˜{R})-3-amino-4-(hydroxymethyl)piperidine-1-carbonyl]-7-methoxy-1-methyl-benzimidazol-2-yl]-8,8,11-trimethyl-1,10,19-triazatricyclo[10.5.2.0^{15,18}]nonadeca-12(19),13,15(18),16-tetraen-9-one] was 1160 nM.
The value for `C[C@H]1NC(=O)c2ccncc2CCCCCn2c(-c3nc4cc(C(=O)N[C@H]5CNCC[C@@H]5F)c(F)cc4n3C)cc3ccc1nc32` [Example 350, 6-fluoro-~{N}-[(3~{S},4~{S})-4-fluoro-3-piperidyl]-1-methyl-2-[(2~{R})-2-methyl-4-oxo-3,8,16,22-tetrazatetracyclo[14.5.2.0^{5,10}.0^{19,23}]tricosa-1(22),5,7,9,17,19(23),20-heptaen-17-yl]benzimidazole-5-carboxamide] was 38 nM; that for `COc1cc(C(=O)N2[C@H]3CC[C@@H]2[C@H](N)C3)cc2nc(-c3cc4ccc5nc4n3CCCCCCCC3(CC3)C(=O)N[C@@H]5C)n(C)c12` [Example 281, (12~{R})-18-[5-[(1~{R},2~{R},4~{S})-2-amino-7-azabicyclo[2.2.1]heptane-7-carbonyl]-7-methoxy-1-methyl-benzimidazol-2-yl]-12-methyl-spiro[1,11,20-triazatricyclo[11.5.2.0^{16,19}]icosa-13(20),14,16(19),17-tetraene-9,1′-cyclopropane]-10-one] was 88 nM; that for `C[C@H]1NC(=O)c2cc3ccccc3nc2CCCCCn2c(-c3nc4cc(C(=O)N5C[C@H](N)[C@@H]6CC[C@H]5C6)cc(F)c4n3C3CC3)cc3ccc1nc32` [Example 476, (2~{R})-21-[5-[(1~{S),4~{R},5~{R})-4-amino-2-azabicyclo[3.2.1]octane-2-carbonyl]-1-cyclopropyl-7-fluoro-benzimidazol-2-yl]-2-methyl-3,13,20,26-tetrazapentacyclo[18.5.2.0^{5,14).0^ {7,12}.0^{23,27}]heptacosa-1(26),5(14),6,8,10,12,21,23(27),24-nonaen-4-one] was 38 nM.
To `COc1cc(C(=O)N2CC[C@@H](OC)[C@@H](N)C2)cc2nc(-c3cc4ccc5nc4n3CCCCCC[C@@](C)(C(F)(F)F)C(=O)N[C@@H]5C)n(C)c12` [Example 719, (8~{R},11~{R})-17-[5-[(3~{S},4~{R})-3-amino-4-methoxy-piperidine-1-carbonyl]-7-methoxy-1-methyl-benzimidazol-2-yl]-8,11-dimethyl-8-(trifluoromethyl)-1,10,19-triazatricyclo[10.5.2.0^ {15,18}]nonadeca-12(19),13,15(18),16-tetraen-9-one] belongs 91 nM; to `CO[C@@H]1CCN(C(=O)c2cc3nc(-c4cc5ccc6nc5n4CCCCC[C@@H]4C[C@H]4C(=O)N[C@@H]6C)n(C4CC4)c3cc2F)C[C@@H]1N` [Example 572, (2~{R},5~{R},7~{R})-14-[5-[(3~{S},4~{R})-3-amino-4-methoxy-piperidine-1-carbonyl]-1-cyclopropyl-6-fluoro-benzimidazol-2-yl]-2-methyl-3,13,19-triazatetracyclo [11.5.2.0^{5,7}.0^{16,20}] icosa-1(19),14,16(20), 17-tetraen-4-one], 53 nM; to `COc1cc(C(=O)N2CC[C@@H](OC)[C@@H](N)C2)cc2nc(-c3cc4ccc5nc4n3CCCCCc3ccccc3C(=O)N(C)[C@@H]5C)n(C)c12` [Example 654, (2~{R})-17-[5-[(3~{S},4~{R})-3-amino-4-methoxy-piperidine-1-carbonyl]-7-methoxy-1-methyl-benzimidazol-2-yl]-2,3-dimethyl-3,16,22-triazatetracyclo[14.5.2.0^ {5,10).0^{19,23}] tricosa-1(22),5,7,9,17,19(23), 20-heptaen-4-one], 51 nM.
On to `COc1cc(C(=O)N2CCC[C@@H](N)[C@H]2C)cc2nc(-c3cc4ccc5nc4n3CC(F)(F)CCCc3cncc(F)c3C(=O)N[C@@H]5C)n(C)c12` [Example 679, (2~{R})-17-[5-[(2~{R},3~ {R})-3-amino-2-methyl-piperidine-1-carbonyl]-7-methoxy-1-methyl-benzimidazol-2-yl]-6,14,14-trifluoro-2-methyl-3,8,16,22-tetrazatetracyclo[14.5.2.0^ {5,10).0^{19,23}] tricosa-1(22),5(10),6,8,17, 19(23),20-heptaen-4-one], for which the IC50 is 33 nM.
With `C[C@H]1NC(=O)[C@@H]2C[C@H]2CCCC(F)(F)Cn2c(-c3nc4cc(C(=O)N5C[C@H](N)[C@@H]6CC[C@H]5C6)cc(F)c4n3[C@H]3C[C@@H]3F)cc3ccc1nc32` [Example 479, (2~{R},5~{R},7~{R})-14-[5-[(1~{S},4~{R},5~{R})-4-amino-2-azabicyclo[3.2.1]octane-2-carbonyl]-7-fluoro-1-[(1~{S},2~{S})-2-fluorocyclopropyl]benzimidazol-2-yl]-11,11-difluoro-2-methyl-3,13,19-triazatetracyclo[11.5.2.0^{5,7}.0^{16,20}] icosa-1(19),14,16(20),17-tetraen-4-one], the IC50 is 47 nM.
To `C[C@@H]1C[C@H]1n1c(-c2cc3ccc4nc3n2CCCCC[C@@H]2C[C@H]2C(=O)N[C@@H]4C)nc2cc(C(=O)N[C@H]3CNCC[C@@H]3F)c(F)cc21` [Example 416, 6-fluoro-~{N}-[(3~{S},4~{S})-4-fluoro-3-piperidyl]-1-[(1~{R},2~{R})-2-methylcyclopropyl]-2-[(2~{R},5~{R},7~{R})-2-methyl-4-oxo-3,13,19-triazatetracyclo[11.5.2.0^{5,7}.0^{16,20}]icosa-1(19),14,16(20),17-tetraen-14-yl]benzimidazole-5-carboxamide] belongs 34 nM; to `[2H]C1([2H])CCCC[C@@H]2C[C@H]2C(=O)N[C@H](C)c2ccc3cc(-c4nc5cc(C(=O)N6CC[C@@H](OC)[C@@H](N)C6)cc(F)c5n4C4CC4)n1c3n2` [Example 874, (2~{R},5~{R},7~{R})-14-[5-[(3~{S},4~{R})-3-amino-4-methoxy-piperidine-1-carbonyl]-1-cyclopropyl-7-fluoro-benzimidazol-2-yl]-12,12-dideuterio-2-methyl-3,13,19-triazatetracyclo[11.5.2.0^ {5,7}.0^{16,20}]icosa-1(19), 14,16(20),17-tetraen-4-one], 29 nM; to `[2H]C1([2H])[C@H](N)[C@@H]2CC[C@@H](C2)N1C(=O)c1cc(OC)c2c(c1)nc(-c1cc3ccc4nc3n1CCCCCc1ccccc1C(=O)N[C@@H]4C)n2C` [Example 770, (2~{R})-17-[5-[(1~{S},4~{R}, 5~{R})-4-amino-3,3-dideuterio-2-azabicyclo[3.2.1]octane-2-carbonyl]-7-methoxy-1-methyl-benzimidazol-2-yl]-2-methyl-3,16,22-triazatetracyclo[14.5.2.0^ {5,10).0^{19,23}]tricosa-1(22),5(10),6,8,17,19(23), 20-heptaen-4-one], 5 nM.
To `C[C@H]1NC(=O)[C@H]2C[C@@H]2CC(F)(F)CCCn2c(-c3nc4cc(C(=O)N[C@H]5CNCC[C@@H]5F)c(F)cc4n3C)cc3ccc1nc32` [Example 624, 2-[(2~{R},5~{S},7~{R})-9,9-difluoro-2-methyl-4-oxo-3,13,19-triazatetracyclo[11.5.2.0^ {5,7).0^{16,20}]icosa-1(19),14,16(20), 17-tetraen-14-yl]-6-fluoro-~{N}-[(3~{S},4~ {S})-4-fluoro-3-piperidyl]-1-methyl-benzimidazole-5-carboxamide] belongs 70 nM; to `COc1cc(C(=O)N2CCC[C@@H](N)C2)cc2nc(-c3cc4ccc5nc4n3CCCCCCCCOC5C)n(C)c12` (some centres unmarked) [Example 291, [(3˜{R})-3-amino-1-piperidyl]-[7-methoxy-1-methyl-2-(11-methyl-10-oxa-1,19-diazatricyclo[10.5.2.0^{15,18}]nonadeca-12(19),13,15(18),16-tetraen-17-yl)benzimidazol-5-yl]methanone], 335 nM; to `CO[C@@H]1CCN(C(=O)c2cc(F)c3c(c2)nc(-c2cc4ccc5nc4n2CCCCCC[C@](F)(c2cccc(Cl)n2)C(=O)N[C@@H]5C)n3C2CC2)C[C@@H]1N` [Example 876, (8~{S},11~{R})-17-[5-[(3~{S}, 4~{R})-3-amino-4-methoxy-piperidine-1-carbonyl]-1-cyclopropyl-7-fluoro-benzimidazol-2-yl]-8-(6-chloro-2-pyridyl)-8-fluoro-11-methyl-1,10,19-triazatricyclo [10.5.2.0^{15,18}]nonadeca-12(19),13,15(18), 16-tetraen-9-one], 122 nM.
